Measurements published in ChEMBL document CHEMBL1201862, “PubChem BioAssay data set” (2004).
The source made the active and inactive calls.

Tests used:
[1] = M. tuberculosis growth inhibition, HTS (AID 449762); type: functional
[2] = viability of uninfected HEp-2 cells – cell-based, HTS, cytotoxicity control for RSV inhibitor project, dose response (AID 2410); type: functional; settings: human respiratory syncytial virus
[3] = Luminescence Cell-Based Dose Retest to Confirm Inhibitors of Cancer Stem Cells. [Related pubchem assays (depositor defined):AID2717, AID2721]; type: functional; settings: Homo sapiens
[4] = target: Aryl hydrocarbon receptor (Homo sapiens, UniProt P35869); test: Luminescence-based cell-based high throughput dose response assay for activators of the Aryl Hydrocarbon Receptor (AHR). [Related pubchem assays: 2796 (Primary screen (AHR activators in singlicate)), 2845 (Confirmation screen (AHR activators in triplicate)), 434939 (Counterscreen (PXR activators in triplicate)), 2804 (Summary (AHR activators))]; type: ADME
NADPH oxidase 1 [5] = target: T1, NADPH oxidase 1 (Homo sapiens, UniProt Q9Y5S8); type: functional, cell-based
NADPH oxidase 1 [6] = target: T1, NADPH oxidase 1; test: Late-stage luminescence-based cell-based dose response assay to identify inhibitors of NADPH oxidase 1 (NOX1): Synthesized analogs 2.; type: functional
[7] = target: Inward rectifier potassium channel 2 (Mus musculus, UniProt P35561); test: Manual electrophysiological patch clamp assay for SAR compounds that inhibit/block inward-rectifying potassium ion channel Kir2.1. [Related pubchem assays: 1843 (Summary assay for Kir2.1 inhibitor assays.), 1672 (Primary HTS of 305616 compounds where 2592 were identified as active.)]; type: functional
Bcl-2-related protein A1 [8] = target: T2, Bcl-2-related protein A1 (Mus musculus, UniProt Q07440); test: small-molecule antagonists of Bfl-1/BH3 interaction – biochemical, TR-FRET, mouse Bfl-1, confirmation (AID 621);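 further: TR-FRET binding of GST-Bfl-1 to FITC-labelled Bid peptide via terbium antibody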
T2 sequence (Q07440 whole entry): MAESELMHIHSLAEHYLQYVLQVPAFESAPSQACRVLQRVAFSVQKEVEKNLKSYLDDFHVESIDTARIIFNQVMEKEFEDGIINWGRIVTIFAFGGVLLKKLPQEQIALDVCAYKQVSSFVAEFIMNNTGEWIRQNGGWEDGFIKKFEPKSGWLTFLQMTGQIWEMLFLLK

[9] = target: Glyceraldehyde-3-phosphate dehydrogenase (Homo sapiens, UniProt P04406)
Bcl-2-related protein A1 [10] = target: T2, Bcl-2-related protein A1; test: Bfl-1 binding inhibitors, SAR follow-up, biochemical, fluorescence polarization (AID 1070)
Vero = test: Vero cell viability after compound exposure – synthesized analogs, set II, cytotoxicity control for West Nile virus antiviral project, SAR follow-up (AID 2402); type: functional; settings: Chlorocebus sabaeus
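Wherever AC50 is given: cells exposed to compound for roughly 70 hours or longer before luminescence read.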

T1 sequence (Q9Y5S8 whole entry): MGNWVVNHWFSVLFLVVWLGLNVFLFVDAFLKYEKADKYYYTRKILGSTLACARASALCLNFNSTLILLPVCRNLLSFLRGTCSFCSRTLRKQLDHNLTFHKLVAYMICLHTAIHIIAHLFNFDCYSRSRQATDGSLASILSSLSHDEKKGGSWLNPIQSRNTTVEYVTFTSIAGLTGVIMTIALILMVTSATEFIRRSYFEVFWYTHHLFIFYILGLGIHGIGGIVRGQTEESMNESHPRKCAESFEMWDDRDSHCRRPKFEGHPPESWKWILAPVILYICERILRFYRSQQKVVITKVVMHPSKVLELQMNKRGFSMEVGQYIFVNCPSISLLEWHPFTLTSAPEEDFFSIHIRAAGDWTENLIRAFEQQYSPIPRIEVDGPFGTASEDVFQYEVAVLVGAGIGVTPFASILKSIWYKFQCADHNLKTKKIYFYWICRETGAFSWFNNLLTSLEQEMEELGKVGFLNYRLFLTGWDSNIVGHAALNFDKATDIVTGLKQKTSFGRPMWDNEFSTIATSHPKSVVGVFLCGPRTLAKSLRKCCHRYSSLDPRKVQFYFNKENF
Aryl hydrocarbon receptor, sequence (P35869 whole entry): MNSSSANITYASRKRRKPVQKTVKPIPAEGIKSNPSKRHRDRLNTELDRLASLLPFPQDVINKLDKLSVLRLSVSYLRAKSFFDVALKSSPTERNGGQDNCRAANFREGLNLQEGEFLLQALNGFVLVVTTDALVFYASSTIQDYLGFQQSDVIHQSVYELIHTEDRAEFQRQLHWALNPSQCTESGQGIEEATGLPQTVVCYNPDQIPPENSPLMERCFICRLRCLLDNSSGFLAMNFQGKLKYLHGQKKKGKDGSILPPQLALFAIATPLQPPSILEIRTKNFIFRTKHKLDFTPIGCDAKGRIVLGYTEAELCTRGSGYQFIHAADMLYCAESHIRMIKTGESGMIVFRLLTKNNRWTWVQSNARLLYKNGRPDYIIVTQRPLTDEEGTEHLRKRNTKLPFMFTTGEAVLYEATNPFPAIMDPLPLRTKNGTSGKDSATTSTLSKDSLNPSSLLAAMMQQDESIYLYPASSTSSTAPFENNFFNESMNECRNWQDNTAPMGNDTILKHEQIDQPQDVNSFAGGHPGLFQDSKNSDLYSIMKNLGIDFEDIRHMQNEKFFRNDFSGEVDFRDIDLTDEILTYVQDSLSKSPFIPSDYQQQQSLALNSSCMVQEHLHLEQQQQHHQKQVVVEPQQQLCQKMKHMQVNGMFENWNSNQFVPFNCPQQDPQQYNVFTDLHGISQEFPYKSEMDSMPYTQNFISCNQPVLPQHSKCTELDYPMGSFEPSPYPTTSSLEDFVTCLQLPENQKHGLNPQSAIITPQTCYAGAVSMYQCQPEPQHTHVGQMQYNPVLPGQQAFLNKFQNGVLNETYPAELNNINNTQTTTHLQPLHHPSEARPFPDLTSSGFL
Inward rectifier potassium channel 2, sequence (P35561 whole entry): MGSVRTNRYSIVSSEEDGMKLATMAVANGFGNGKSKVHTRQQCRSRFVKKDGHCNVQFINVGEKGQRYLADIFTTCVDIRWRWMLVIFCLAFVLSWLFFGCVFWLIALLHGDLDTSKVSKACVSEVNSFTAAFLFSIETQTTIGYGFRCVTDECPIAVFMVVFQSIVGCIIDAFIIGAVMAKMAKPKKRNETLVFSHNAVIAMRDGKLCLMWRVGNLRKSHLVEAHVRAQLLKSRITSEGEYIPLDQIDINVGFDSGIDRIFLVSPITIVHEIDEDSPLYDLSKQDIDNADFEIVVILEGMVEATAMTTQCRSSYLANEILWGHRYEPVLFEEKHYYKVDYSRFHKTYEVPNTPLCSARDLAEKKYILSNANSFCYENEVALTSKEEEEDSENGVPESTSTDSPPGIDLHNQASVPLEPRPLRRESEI
Glyceraldehyde-3-phosphate dehydrogenase, sequence (P04406 whole entry): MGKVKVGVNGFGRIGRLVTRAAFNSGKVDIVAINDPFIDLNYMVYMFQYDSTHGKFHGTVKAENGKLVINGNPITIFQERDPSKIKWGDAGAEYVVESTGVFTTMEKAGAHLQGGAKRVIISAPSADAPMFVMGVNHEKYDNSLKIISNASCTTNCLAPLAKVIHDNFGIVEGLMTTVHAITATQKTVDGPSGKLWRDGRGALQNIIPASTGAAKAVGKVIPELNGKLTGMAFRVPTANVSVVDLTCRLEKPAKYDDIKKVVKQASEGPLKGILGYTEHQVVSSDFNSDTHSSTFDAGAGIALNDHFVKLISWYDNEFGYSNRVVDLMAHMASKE

With CC1(CCc2ccccc2)N=C(S)N(c2ccc(Cl)cc2)N1 (stereo unspecified) the IC50 [1] was > 100 µM (active).
In the case of COc1cc2c(cc1NC(=O)Nc1ccc(C)cc1)oc1ccccc12, the CC50 [2] is reported as 26.4 µM (active), the AC50 [3] is reported as 1.88 µM (active) and the EC50 [4] is reported as 1.47 µM (active).
In the case of COc1ccc(NC(=O)Nc2ccc3c(c2)CCN3C(C)=O)cc1, the IC50 (NADPH oxidase 1 [5]) is reported as > 17 µM (not active).
With ClCCN1c2ccccc2Sc2ccc(Cl)cc21 the IC50 (NADPH oxidase 1 [6]) was > 50 µM (not active).
For COc1ccc(CNCc2ccccc2Cl)cc1, the IC50 [7] was 13.3 µM (active).
For CN1CCN(C2=CC(=O)N(c3ccc(Cl)cc3)C2=O)CC1, the IC50 (Bcl-2-related protein A1 [8]) was > 100 µM (not active), the IC50 [9] was > 100 µM (not active) and the IC50 (Bcl-2-related protein A1 [10]) was > 100 µM (not active).
For O=c1c2cc([N+](=O)[O-])ccc2nc2n1CCC2, the CC50 (Vero) was > 100 µM (active).
